Test results from the supplement of paper PMC11451515.

Tested on: NOMO1
Experiment: cell viability relative to DMSO control; higher = less cytotoxic
Details: 48 h
Method in brief: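 Viability, reported as a per-plate percentage of DMSO wells with cell-free wells as background, came from CellTiter-Glo One luminescence. Reading took place after 48 h at 37°C. Before that, NOMO1 or SEM (500 cells/well) or P12-Ichikawa (1000 cells/well) leukemia cells, adapted for at least four passages in each medium, were seeded in 1536-well plates (5 μl) and pin-dosed with library compounds in DMSO, 47 μM to 0.79 nM over 11 threefold points.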

[1] = HPLM + 10% dialyzed FBS, 0.000781 µM
[2] = HPLM + 10% dialyzed FBS, 0.00234 µM
[3] = HPLM + 10% dialyzed FBS, 0.00702 µM
[4] = HPLM + 10% dialyzed FBS, 0.0211 µM
[5] = HPLM + 10% dialyzed FBS, 0.0632 µM
[6] = HPLM + 10% dialyzed FBS, 0.19 µM
[7] = HPLM + 10% dialyzed FBS, 0.569 µM
[8] = HPLM + 10% dialyzed FBS, 1.71 µM
[9] = HPLM + 10% dialyzed FBS, 5.12 µM
[10] = HPLM + 10% dialyzed FBS, 15.4 µM
[11] = HPLM + 10% dialyzed FBS, 46.1 µM
[12] = RPMI 5 mM glucose + 10% FBS, 0.000781 µM
[13] = RPMI 5 mM glucose + 10% FBS, 0.00234 µM
[14] = RPMI 5 mM glucose + 10% FBS, 0.00702 µM
[15] = RPMI 5 mM glucose + 10% FBS, 0.0211 µM
[16] = RPMI 5 mM glucose + 10% FBS, 0.0632 µM
[17] = RPMI 5 mM glucose + 10% FBS, 0.19 µM
[18] = RPMI 5 mM glucose + 10% FBS, 0.569 µM
[19] = RPMI 5 mM glucose + 10% FBS, 1.71 µM
[20] = RPMI 5 mM glucose + 10% FBS, 5.12 µM
[21] = RPMI 5 mM glucose + 10% FBS, 15.4 µM
[22] = RPMI 5 mM glucose + 10% FBS, 46.1 µM
[23] = RPMI 5 mM glucose + 10% dialyzed FBS, 0.000781 µM
[24] = RPMI 5 mM glucose + 10% dialyzed FBS, 0.00234 µM
[25] = RPMI 5 mM glucose + 10% dialyzed FBS, 0.00702 µM
[26] = RPMI 5 mM glucose + 10% dialyzed FBS, 0.0211 µM
[27] = RPMI 5 mM glucose + 10% dialyzed FBS, 0.0632 µM
[28] = RPMI 5 mM glucose + 10% dialyzed FBS, 0.19 µM
[29] = RPMI 5 mM glucose + 10% dialyzed FBS, 0.569 µM
[30] = RPMI 5 mM glucose + 10% dialyzed FBS, 1.71 µM
[31] = RPMI 5 mM glucose + 10% dialyzed FBS, 5.12 µM
[32] = RPMI 5 mM glucose + 10% dialyzed FBS, 15.4 µM
[33] = RPMI 5 mM glucose + 10% dialyzed FBS, 46.1 µM

Row | Structure (SMILES) | cell viability [1] [%] | cell viability [2] [%] | cell viability [3] [%] | cell viability [4] [%] | cell viability [5] [%] | cell viability [6] [%] | cell viability [7] [%] | cell viability [8] [%] | cell viability [9] [%] | cell viability [10] [%] | cell viability [11] [%] | cell viability [12] [%] | cell viability [13] [%] | cell viability [14] [%] | cell viability [15] [%] | cell viability [16] [%] | cell viability [17] [%] | cell viability [18] [%] | cell viability [19] [%] | cell viability [20] [%] | cell viability [21] [%] | cell viability [22] [%] | cell viability [23] [%] | cell viability [24] [%] | cell viability [25] [%] | cell viability [26] [%] | cell viability [27] [%] | cell viability [28] [%] | cell viability [29] [%] | cell viability [30] [%] | cell viability [31] [%] | cell viability [32] [%] | cell viability [33] [%]
1 | FC1=CC=C(SC/2=N/N3\C=N/C(=O)/C(=C3/C=C2)C4=C(Cl)C=CC=C4Cl)C(=C1)F | 99 | 108 | 108 | 114 | 112 | 118 | 119 | 107 | 101 | 99.2 | 50.2 | 98.8 | 93.2 | 104 | 118 | 104 | 115 | 98.3 | 105 | 95.3 | 104 | 43.7 | 98.7 | 114 | 105 | 103 | 101 | 106 | 108 | 110 | 108 | 99 | 72.5
2 | C[N]1C=C(C2=C1C=CC=C2)\C3=C(\C(=O)NC3=O)C4=C5CC(CN)CC[N]5C6=C4C=CC=C6 (stereo not drawn) | 94.9 | 118 | 115 | 101 | 109 | 120 | 115 | 110 | 113 | 90 | 37.4 | 88.5 | 104 | 94.1 | 97.8 | 102 | 100 | 93.5 | 95.8 | 96.8 | 81.3 | 44.1 | 92.8 | 100 | 106 | 114 | 105 | 111 | 105 | 100 | 104 | 88 | 63.4
3 | C=CC(=O)N1CCC[C@@H](n2nc(-c3ccc(Oc4ccccc4)cc3)c3c(N)ncnc32)C1 | – | – | – | – | – | – | – | – | – | – | – | 117 | 117 | 113 | 101 | 110 | 99.2 | 110 | 107 | 132 | 108 | 121 | 122 | 123 | 113 | 102 | 119 | 113 | 118 | 117 | 120 | 129 | 95.9
4 | Cn1cnc2c1c(=O)[nH]c(=O)n2C | 112 | 102 | 102 | 119 | 108 | 110 | 116 | 96.4 | 105 | 78.3 | 5.56 | 99.2 | 110 | 96.2 | 92.6 | 97 | 96.5 | 103 | 88.1 | 99.3 | 91.6 | 7.98 | 101 | 91.7 | 99 | 114 | 109 | 104 | 100 | 102 | 96 | 90 | 9.87
5 | C[C@]12CCC(=O)C=C1CC[C@@H]1[C@@H]2CC[C@@]2(C)[C@H]1CC[C@]2(C)O | 109 | 116 | 115 | 85.3 | 110 | 102 | 108 | 102 | 99.1 | 96.5 | 90.2 | 85.1 | 89.6 | 88.9 | 97.2 | 86 | 96.5 | 91.1 | 86.8 | 98.7 | 87.7 | 83.4 | 107 | 93.8 | 96.1 | 86.5 | 105 | 93.1 | 91.6 | 98.1 | 90.9 | 91.6 | 90.7
6 | CN[C@@H]1[C@H](O)[C@H](NC)[C@H]2O[C@@]3(O)C(=O)C[C@@H](C)O[C@H]3O[C@@H]2[C@H]1O | 123 | 135 | 117 | 113 | 124 | 127 | 128 | 121 | 103 | 87.4 | 42.6 | – | – | – | – | – | – | – | – | – | – | – | 110 | 115 | 115 | 119 | 122 | 121 | 113 | 114 | 119 | 103 | 91.4
7 | C=C[C@H]1CN2CC[C@H]1C[C@H]2[C@H](O)c1ccnc2ccc(OC)cc12 | 116 | 89.2 | 96.3 | 109 | 105 | 98.4 | 115 | 96.4 | 112 | 101 | 86.8 | 86.5 | 87.5 | 84.3 | 87.8 | 103 | 97.9 | 98.7 | 103 | 99.5 | 97.6 | 76.4 | 92.3 | 103 | 98.9 | 96.1 | 104 | 108 | 113 | 105 | 106 | 105 | 68.8
8 | C[C@@]12C[C@@]3(O)O[C@@H](O1)[C@]1(COC(=O)c4ccccc4)[C@H]3C[C@@]12O[C@@H]1O[C@H](CO)[C@@H](O)[C@H](O)[C@H]1O | 94.6 | 112 | 99.3 | 126 | 124 | 130 | 137 | 113 | 100 | 71.1 | 45.5 | 100 | 95.2 | 109 | 103 | 114 | 105 | 105 | 103 | 98.3 | 109 | 112 | 103 | 91.2 | 94.9 | 103 | 101 | 114 | 93.7 | 107 | 114 | 110 | 91
9 | CCC[C@H]1C[C@H](C(=O)N[C@@H]([C@@H]2O[C@@H](SC)[C@@H](O)[C@@H](O)[C@H]2O)[C@H](C)Cl)N(C)C1 | 102 | 117 | 106 | 119 | 128 | 121 | 131 | 118 | 124 | 137 | 114 | 119 | 115 | 108 | 118 | 112 | 134 | 123 | 116 | 129 | 126 | 143 | 112 | 117 | 120 | 113 | 114 | 119 | 122 | 109 | 129 | 127 | 130
10 | Cc1c(NC(=O)OC[C@@H]2COCCN2)cn2ncnc(Nc3ccc4c(cnn4Cc4cccc(F)c4)c3)c12 | 67.5 | 75.4 | 80.3 | 90.6 | 93.2 | 102 | 92.8 | 76 | 88.7 | 60.5 | 18.6 | 97.2 | 86.6 | 85.2 | 93.5 | 91.6 | 89.5 | 89.9 | 92.7 | 84.6 | 74.9 | 40 | 77.6 | 80.4 | 86.3 | 85.8 | 88.3 | 86.5 | 89 | 91.7 | 89.4 | 80.3 | 37.5
11 | CC1(C)O[C@@H]2C[C@H]3[C@@H]4CCC5=CC(=O)C=C[C@]5(C)[C@H]4[C@@H](O)C[C@]3(C)[C@]2(C(=O)CO)O1 | 95 | 92.4 | 104 | 90.7 | 119 | 108 | 117 | 98.5 | 95.2 | 91.9 | 101 | 87.2 | 92.5 | 90.4 | 88.7 | 97.4 | 110 | 88.7 | 92.5 | 98.5 | 87.8 | 93.6 | 96.7 | 91.4 | 90.9 | 90.4 | 94.2 | 92.9 | 106 | 109 | 104 | 85.6 | 103
12 | OC1=CC2=C(C(=C1)O)C(=O)\C=C(/O2)C3=CC=CC=C3 | 106 | 106 | 103 | 116 | 109 | 116 | 108 | 118 | 121 | 93.6 | 20.2 | 101 | 97.8 | 92.1 | 97.5 | 100 | 108 | 92.7 | 96.1 | 101 | 105 | 15.6 | 91.9 | 103 | 106 | 104 | 115 | 102 | 115 | 112 | 98.9 | 98.3 | 27.6
13 | CC(C)=CC[C@@H](O)C/1=C/C(=O)C2=C(O)C=CC(=C2C1=O)O | 91.5 | 108 | 95.5 | 100 | 105 | 113 | 123 | 85.1 | 33.5 | 25.8 | 17 | 93.7 | 105 | 102 | 102 | 95.7 | 96 | 108 | 52.6 | 17.3 | 17.9 | 12.2 | 88.2 | 92.6 | 93 | 113 | 98.1 | 109 | 107 | 70.2 | 24.5 | 15.3 | 21.2
14 | Cc1cnc(NC(=O)Nc2cc(Br)c(C)cc2OC[C@@H]2CNCCO2)cn1 | 122 | 130 | 107 | 127 | 130 | 120 | 95.1 | 69.5 | 30.9 | 35.5 | 26.6 | 108 | 120 | 107 | 107 | 119 | 117 | 101 | 99 | 51 | 94.2 | 22.5 | 111 | 106 | 109 | 116 | 121 | 108 | 110 | 68.1 | 23.1 | 32.8 | 17.9
15 | FC(F)c1nc2ccccc2n1-c1nc(N2CCOCC2)nc(N2CCOCC2)n1 | 104 | 93.8 | 92 | 60.1 | 65.3 | 42.6 | 43.9 | 36.3 | 41.5 | 27.7 | 30.6 | 85.4 | 92.2 | 87.9 | 94.5 | 78 | 67.8 | 52.6 | 62.8 | 45.7 | 60.2 | 31.2 | 86.5 | 102 | 97.1 | 97.5 | 76.5 | 71 | 54.7 | 52.9 | 50.2 | 43.9 | 34.4
